The results in this text go back to PubChem BioAssay (NCI).

SMILES strings stand for the structures.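 Cells were grown in 96-well plates and exposed to each compound for 48 hours at five concentrations; endpoints were interpolated linearly between bracketing concentrations, or set to the highest concentration if not reached. TGI: total growth inhibition.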 Where a SMILES comes first, the peptide text is derived from it. [ ]: non-standard residue; d: D form. The star is where a group is joined. NMeAc5c = CNC1(C(=O)O)CCCC1; Boc = CC(C)(C)OC(=O)*; OBn = c1ccc(CO*)cc1

Test systems include HOP-62 NSCLC; CAKI-1 renal; T-47D breast; SK-OV-3 ovarian; OVCAR-5 ovarian; ACHN renal; RXF 393 renal; MDA-N; MCF7 breast; NCI-H460 lung.
Common to all, as to assay: NCI-60 cell line screen, 48 h

Turning to `CC(C)(C)OC(=O)NCCCCC1NC(=O)[C@@H]2Cc3c([nH]c4ccccc34)C(C3CCCCC3)N2C1=O` (stereo partly drawn), the TGI in the experiment with HOP-62 NSCLC, in the experiment with CAKI-1 renal, in the experiment on T-47D breast, in the experiment on SK-OV-3 ovarian, in the experiment with OVCAR-5 ovarian and in the experiment on ACHN renal was over 100 µM throughout. Moreover, the TGI in the experiment with RXF 393 renal was 25.6 µM; in the experiment with MDA-N it was over 100 µM; with MCF7 breast, over 100 µM; with NCI-H460 lung it was over 100 µM.

With `COC(=O)c1c(C)cccc1C1CN=NC12Cc1ccc(C)cc1C2=O` (stereo not drawn), the TGI in the experiment on HOP-62 NSCLC was over 100 µM; in the experiment on CAKI-1 renal, over 100 µM; with T-47D breast, 49.8 µM; with OVCAR-5 ovarian, over 100 µM; in the experiment on ACHN renal, over 100 µM; in the experiment with RXF 393 renal, over 100 µM. Moreover, the TGI in the experiment on MDA-N was over 100 µM; in the experiment on MCF7 breast, over 100 µM; with NCI-H460 lung, 28.2 µM.

With `C1CN(c2nc3c(nnc4nc(N5CCOCC5)sc43)s2)CCO1`, the TGI with HOP-62 NSCLC, in the experiment on CAKI-1 renal, in the experiment with T-47D breast, in the experiment with OVCAR-5 ovarian, in the experiment on ACHN renal and in the experiment with RXF 393 renal was over 100 µM in each case. In addition, the TGI in the experiment with MDA-N and with MCF7 breast was over 100 µM in each case.

As to `COC(=O)c1cc(=O)nc2sc3cccc(C)c3n12`, the TGI with HOP-62 NSCLC was over 100 µM; in the experiment on CAKI-1 renal it was 61 µM; in the experiment with T-47D breast, over 100 µM; in the experiment on SK-OV-3 ovarian, over 100 µM; in the experiment on OVCAR-5 ovarian, over 100 µM; with ACHN renal, 42.8 µM. Moreover, the TGI in the experiment on RXF 393 renal, with MDA-N, in the experiment on MCF7 breast and in the experiment on NCI-H460 lung was over 100 µM in each case.

In the case of `Nn1c(-c2ccccc2)nn(C(=O)c2ccccc2)c1=O`, the TGI with HOP-62 NSCLC, with T-47D breast, in the experiment with OVCAR-5 ovarian, with ACHN renal, in the experiment with RXF 393 renal and in the experiment on MDA-N was over 100 µM each time. The TGI in the experiment on MCF7 breast and in the experiment with NCI-H460 lung was over 100 µM throughout.

As for `N#CCCC1C(C#N)C2(Cl)CC1(Cl)C(Cl)=C2Cl` (stereo not drawn), the TGI in the experiment with HOP-62 NSCLC, with CAKI-1 renal, with T-47D breast, with SK-OV-3 ovarian, in the experiment on OVCAR-5 ovarian and in the experiment on ACHN renal was over 10 µM each time. Also, the TGI in the experiment on RXF 393 renal, in the experiment with MDA-N, in the experiment on MCF7 breast and in the experiment on NCI-H460 lung was over 10 µM in each case.

On to `CC(C)=CCc1c2c(c3occ(-c4ccc(O)cc4)c(=O)c3c1O)CC(C(C)(C)O)O2` (stereo not drawn), for which the TGI in the experiment with HOP-62 NSCLC worked out at 33.6 µM; with CAKI-1 renal it was 35.7 µM; with T-47D breast, 34.1 µM; in the experiment on SK-OV-3 ovarian it was 33 µM; with OVCAR-5 ovarian, 33.8 µM; with ACHN renal, 28 µM. Moreover, the TGI in the experiment on RXF 393 renal stood at 30.3 µM; with MDA-N it was 49.1 µM; with MCF7 breast, 28.3 µM; in the experiment with NCI-H460 lung it was 26 µM.

Regarding `Cc1ccc(-c2n[nH]c(=O)n2N2C(=O)c3ccccc3C2=O)cc1`, the TGI in the experiment with HOP-62 NSCLC, with CAKI-1 renal, with T-47D breast, in the experiment with OVCAR-5 ovarian, in the experiment on ACHN renal and in the experiment on RXF 393 renal was over 100 µM throughout. Besides, the TGI in the experiment with MDA-N, in the experiment on MCF7 breast and in the experiment on NCI-H460 lung was over 100 µM each time.

Consider `CN(C(=O)C(Cc1ccccc1)NC(=O)OC(C)(C)C)C1(C(=O)NC(Cc2ccccc2)C(=O)OCc2ccccc2)CCCC1` (stereo not drawn) (Boc-Phe-[NMeAc5c]-Phe-OBn; configuration not given here), for which the TGI is over 100 µM in the experiment on HOP-62 NSCLC; over 100 µM with T-47D breast; 41.3 µM with SK-OV-3 ovarian; over 100 µM in the experiment with OVCAR-5 ovarian; over 100 µM in the experiment with ACHN renal; over 100 µM in the experiment on RXF 393 renal. For the same molecule, the TGI in the experiment with MDA-N was 65.4 µM; with MCF7 breast, over 100 µM; with NCI-H460 lung it was 59.8 µM.

Regarding `C=C1C(=O)O[C@@H]2C(=O)[C@@H](C)CCC/C(C)=C/CC[C@@]3(C)O[C@@H]3C[C@@H]12`, the TGI in the experiment with HOP-62 NSCLC is over 100 µM; in the experiment on CAKI-1 renal, 37.5 µM; with T-47D breast, over 100 µM; in the experiment on SK-OV-3 ovarian, over 100 µM; with OVCAR-5 ovarian, over 100 µM; in the experiment with ACHN renal it was over 100 µM. Moreover, the TGI in the experiment on RXF 393 renal is 17.1 µM; with MDA-N, over 100 µM; with MCF7 breast, over 100 µM.

With `COc1cc(C(=O)N(C(=S)OCc2ccccn2)c2ccccc2)cc(OC)c1OC`, the TGI in the experiment on CAKI-1 renal, with T-47D breast, in the experiment on SK-OV-3 ovarian, with OVCAR-5 ovarian, with ACHN renal and with RXF 393 renal was over 100 µM throughout. Besides, the TGI in the experiment on MDA-N, in the experiment with MCF7 breast and in the experiment with NCI-H460 lung was over 100 µM each time.

`COc1cc2c(c(OC)c1OC)C(=O)[C@@H]1[C@H]2N1C(N)=O`: the TGI in the experiment with HOP-62 NSCLC, with CAKI-1 renal, in the experiment on T-47D breast, with OVCAR-5 ovarian, in the experiment with ACHN renal and in the experiment with RXF 393 renal was over 100 µM each time. For the same molecule, the TGI in the experiment on MDA-N, with MCF7 breast and in the experiment with NCI-H460 lung was over 100 µM throughout.

With `COCO[C@@H]1C[C@H]2C(=O)Nc3ccccc3C(=O)N2C1`, the TGI with HOP-62 NSCLC is 90.1 µM; in the experiment on CAKI-1 renal it was over 100 µM; in the experiment on T-47D breast it was over 100 µM; with SK-OV-3 ovarian, over 100 µM; in the experiment on OVCAR-5 ovarian, over 100 µM; with ACHN renal it was over 100 µM. The TGI in the experiment on RXF 393 renal was 41.7 µM; with MDA-N it was over 100 µM; in the experiment on MCF7 breast, over 100 µM.

As for `COc1ccc(N/N=C2\CCOc3ccc(C)cc3C2=O)cc1`, the TGI in the experiment on HOP-62 NSCLC was over 100 µM; with CAKI-1 renal it was over 100 µM; in the experiment with T-47D breast, 42.4 µM; with SK-OV-3 ovarian, 80.2 µM; in the experiment with OVCAR-5 ovarian, over 100 µM; in the experiment with ACHN renal it was over 100 µM. Further, the values for the TGI with MDA-N, in the experiment on MCF7 breast and in the experiment on NCI-H460 lung were 22.3 µM, over 100 µM and 53.7 µM, respectively.
